Reference: US5210193A, “Piperazine derivatives” (American Cyanamid Company, priority 1990, dated 1993)
≈ marks a conversion by molar mass, not a printed value. Where two headings read alike, the source gives them in different places.

What was measured:
Assay in all cases: in vitro antibacterial MIC, agar plate dilution
Type in all cases: cell-based
[1] = system: Klebsiella pneumoniae MOR 84-24; conditions: Klebsiella pneumoniae, MOR8424, 18 h, 35° C., read-out: MIC
Procedure, shortened: (§1)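 MIC, mcg/ml: lowest concentration with no visible growth after 18 h incubation at 35° C. Mueller-Hinton agar dilution plates; ~10^4 CFU inoculum via Steers replicating device.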

[2] = system: Morganella morganii MOR 84-45; conditions: Morganella morganii, MOR8445, 18 h, 35° C., read-out: MIC
Procedure, shortened: as §1

[3] = system: Streptococcus faecalis VGH 84-65; conditions: Enterococcus faecalis, VGH8465, 18 h, 35° C., read-out: MIC
Procedure, shortened: as §1

[4] = system: Streptococcus faecalis VGH 84-69; conditions: Enterococcus faecalis, VGH8469, 18 h, 35° C., read-out: MIC
Procedure, shortened: as §1

[5] = system: Enterobacter cloacae K 84-10; conditions: Enterobacter cloacae, K8410, 18 h, 35° C., read-out: MIC
Procedure, shortened: as §1

[6] = system: Staphylococcus aureus VGH 84-47; conditions: Staphylococcus aureus, VGH8447, 18 h, 35° C., read-out: MIC
Procedure, shortened: as §1

[7] = system: Pseudomonas aeruginosa K 84-16; conditions: Pseudomonas aeruginosa, K8416, 18 h, 35° C., read-out: MIC
Procedure, shortened: as §1

[8] = system: Serratia marcescens VGH 84-30; conditions: Serratia marcescens, VGH8430, 18 h, 35° C., read-out: MIC
Procedure, shortened: as §1

[9] = system: Escherichia coli VGH 84-19; conditions: Escherichia coli, VGH8419, 18 h, 35° C., read-out: MIC
Procedure, shortened: as §1

[10] = system: Serratia marcescens K 84-18; conditions: Serratia marcescens, K8418, 18 h, 35° C., read-out: MIC
Procedure, shortened: as §1

[11] = system: Pseudomonas aeruginosa LL-1244; conditions: Pseudomonas aeruginosa, LL1244, 18 h, 35° C., read-out: MIC
Procedure, shortened: as §1

[12] = system: Escherichia coli MOR 84-20; conditions: Escherichia coli, MOR8420, 18 h, 35° C., read-out: MIC
Procedure, shortened: as §1

[13] = system: Pseudomonas aeruginosa CMC 83-20; conditions: Pseudomonas aeruginosa, CMC8320, 18 h, 35° C., read-out: MIC
Procedure, shortened: as §1

[14] = system: Streptococcus faecalis UCI 85-30; conditions: Enterococcus faecalis, UCI8530, 18 h, 35° C., read-out: MIC
Procedure, shortened: as §1

[15] = system: Klebsiella pneumoniae IO 83-5; conditions: Klebsiella pneumoniae, IO835, 18 h, 35° C., read-out: MIC
Procedure, shortened: as §1

[16] = system: Proteus rettgeri IO 83-21; conditions: Providencia rettgeri, IO8321, 18 h, 35° C., read-out: MIC
Procedure, shortened: as §1

[17] = system: Proteus rettgeri CMC 84-41; conditions: Providencia rettgeri, CMC8441, 18 h, 35° C., read-out: MIC
Procedure, shortened: as §1

Escherichia coli LL 311 = conditions: Escherichia coli, LL311, 18 h, 35° C., read-out: MIC
Procedure, shortened: as §1

[18] = system: Pseudomonas aeruginosa VGH 84-4; conditions: Pseudomonas aeruginosa, VGH844, 18 h, 35° C., read-out: MIC
Procedure, shortened: as §1

[19] = system: Klebsiella pneumoniae CMC 84-31; conditions: Klebsiella pneumoniae, CMC8431, 18 h, 35° C., read-out: MIC
Procedure, shortened: as §1

[20] = system: Staphylococcus aureus CMC 83-131; conditions: Staphylococcus aureus, CMC83131, 18 h, 35° C., read-out: MIC
Procedure, shortened: as §1

[21] = system: Escherichia coli CMC 84-50; conditions: Escherichia coli, CMC8450, 18 h, 35° C., read-out: MIC
Procedure, shortened: as §1

[22] = system: Staphylococcus aureus K 82-26; conditions: Staphylococcus aureus, K8226, 18 h, 35° C., read-out: MIC
Procedure, shortened: as §1

[23] = system: Enterobacter cloacae MOR 84-30; conditions: Enterobacter cloacae, MOR8430, 18 h, 35° C., read-out: MIC
Procedure, shortened: as §1

[24] = system: Streptococcus faecalis UCI 85-19; conditions: Enterococcus faecalis, UCI8519, 18 h, 35° C., read-out: MIC
Procedure, shortened: as §1

[25] = system: Staphylococcus aureus VGH 84-45; conditions: Staphylococcus aureus, VGH8445, 18 h, 35° C., read-out: MIC
Procedure, shortened: as §1

[26] = system: Serratia marcescens MOR 84-41; conditions: Serratia marcescens, MOR8441, 18 h, 35° C., read-out: MIC
Procedure, shortened: as §1

[27] = system: Providencia stuarti CMC 83-3; conditions: Providencia, CMC833, 18 h, 35° C., read-out: MIC
Procedure, shortened: as §1

[28] = system: Escherichia coli CMC 84-11; conditions: Escherichia coli, CMC8411, 18 h, 35° C., read-out: MIC
Procedure, shortened: as §1

[29] = system: Morganella morganii CMC 84-38; conditions: Morganella morganii, CMC8438, 18 h, 35° C., read-out: MIC
Procedure, shortened: as §1

[30] = system: Staphylococcus aureus ATTC 29213; conditions: 35° C.
Procedure, shortened: as §1

[31] = system: Serratia marcescens IO 83-63; conditions: IO8363, 18 hours, 35° C.
Procedure, shortened: as §1

[32] = Staphylococcus aureus, ATTC29213, 18 h, read-out: MIC

SMILES	MIC [1]	MIC [2]	MIC [3]	MIC [4]	MIC [5]	MIC [6]	MIC [7]	MIC [8]	MIC [9]	MIC [10]	MIC [11]	MIC [12]	MIC [13]	MIC [14]	MIC [15]	MIC [16]	MIC [17]	MIC (Escherichia coli LL 311)	MIC [18]	MIC [19]	further results
CN1CCN(c2cc3c(cc2F)c(=O)c(C(=O)O)cn3C2CC2)CC1C1CC1 (stereo not shown) [Example 125, 1-Cyclopropyl-7-(3-cyclopropyl-4-methyl-1-piperazinyl) -6-fluoro-1,4-dihydro-4-oxo-3-quinolinecarboxylic acid]	0.5 µg/mL (≈ 1.3 µM)	0.5 µg/mL (≈ 1.3 µM)	4 µg/mL (≈ 10.4 µM)	4 µg/mL (≈ 10.4 µM)	0.06 µg/mL (≈ 0.156 µM)	0.5 µg/mL (≈ 1.3 µM)	16 µg/mL (≈ 41.5 µM)	8 µg/mL (≈ 20.8 µM)	0.25 µg/mL (≈ 0.649 µM)	0.5 µg/mL (≈ 1.3 µM)	16 µg/mL (≈ 41.5 µM)	0.25 µg/mL (≈ 0.649 µM)	16 µg/mL (≈ 41.5 µM)	8 µg/mL (≈ 20.8 µM)	0.5 µg/mL (≈ 1.3 µM)	1 µg/mL (≈ 2.59 µM)	0.25 µg/mL (≈ 0.649 µM)	0.06 µg/mL (≈ 0.156 µM)	8 µg/mL (≈ 20.8 µM)	0.25 µg/mL (≈ 0.649 µM)	MIC [20]: 1 µg/mL (≈ 2.59 µM); MIC [21]: 0.25 µg/mL (≈ 0.649 µM); MIC [22]: 4 µg/mL (≈ 10.4 µM); MIC [23]: 2 µg/mL (≈ 5.19 µM); MIC [24]: 4 µg/mL (≈ 10.4 µM); MIC [25]: 0.12 µg/mL (≈ 0.311 µM); MIC [26]: 1 µg/mL (≈ 2.59 µM); MIC [27]: > 16 µg/mL; MIC [28]: 0.06 µg/mL (≈ 0.156 µM); MIC [29]: 0.5 µg/mL (≈ 1.3 µM); MIC ([30]; 18 hours): 0.5 µg/mL (≈ 1.3 µM); MIC [30, 32]: 0.25 µg/mL (≈ 0.649 µM)
O=C(O)c1cn(C2CC2)c2cc(N3CCNC(c4ccoc4)C3)c(F)cc2c1=O (stereo not shown) [Example 92]	0.25 µg/mL (≈ 0.629 µM)	0.12 µg/mL (≈ 0.302 µM)	0.5 µg/mL (≈ 1.26 µM)	1 µg/mL (≈ 2.52 µM)	0.06 µg/mL (≈ 0.151 µM)	0.12 µg/mL (≈ 0.302 µM)	4 µg/mL (≈ 10.1 µM)	4 µg/mL (≈ 10.1 µM)	0.06 µg/mL (≈ 0.151 µM)	0.25 µg/mL (≈ 0.629 µM)	2 µg/mL (≈ 5.03 µM)	0.06 µg/mL (≈ 0.151 µM)	4 µg/mL (≈ 10.1 µM)	1 µg/mL (≈ 2.52 µM)	0.25 µg/mL (≈ 0.629 µM)	0.5 µg/mL (≈ 1.26 µM)	0.12 µg/mL (≈ 0.302 µM)	0.03 µg/mL (≈ 0.0755 µM)	2 µg/mL (≈ 5.03 µM)	0.12 µg/mL (≈ 0.302 µM)	MIC [21]: 0.12 µg/mL (≈ 0.302 µM); MIC [22]: 0.12 µg/mL (≈ 0.302 µM); MIC [23]: 1 µg/mL (≈ 2.52 µM); MIC [24]: 1 µg/mL (≈ 2.52 µM); MIC [25]: 0.03 µg/mL (≈ 0.0755 µM); MIC [26]: 0.25 µg/mL (≈ 0.629 µM); MIC [31]: 1 µg/mL (≈ 2.52 µM); MIC [27]: 8 µg/mL (≈ 20.1 µM); MIC [28]: 0.03 µg/mL (≈ 0.0755 µM); MIC [29]: 0.25 µg/mL (≈ 0.629 µM); MIC ([30]; 18 hours): 0.12 µg/mL (≈ 0.302 µM); MIC [30, 32]: 0.06 µg/mL (≈ 0.151 µM)
CCn1cc(C(=O)O)c(=O)c2cc(F)c(N3CCNC(c4ccoc4)C3)cc21 (stereo not shown) [Example 94, 1-Ethyl-6-fluoro-1,4-dihydro-4-oxo-7-[3-(3-furanyl)-1-piperazinyl]-3-quinolinecarboxylic acid]	1 µg/mL (≈ 2.59 µM)	0.12 µg/mL (≈ 0.311 µM)	2 µg/mL (≈ 5.19 µM)	2 µg/mL (≈ 5.19 µM)	0.25 µg/mL (≈ 0.649 µM)	0.25 µg/mL (≈ 0.649 µM)	16 µg/mL (≈ 41.5 µM)	8 µg/mL (≈ 20.8 µM)	0.25 µg/mL (≈ 0.649 µM)	0.5 µg/mL (≈ 1.3 µM)	8 µg/mL (≈ 20.8 µM)	0.25 µg/mL (≈ 0.649 µM)	8 µg/mL (≈ 20.8 µM)	4 µg/mL (≈ 10.4 µM)	1 µg/mL (≈ 2.59 µM)	1 µg/mL (≈ 2.59 µM)	0.25 µg/mL (≈ 0.649 µM)	0.12 µg/mL (≈ 0.311 µM)	4 µg/mL (≈ 10.4 µM)	0.5 µg/mL (≈ 1.3 µM)	MIC [21]: 0.25 µg/mL (≈ 0.649 µM); MIC [22]: 0.25 µg/mL (≈ 0.649 µM); MIC [23]: 4 µg/mL (≈ 10.4 µM); MIC [24]: 4 µg/mL (≈ 10.4 µM); MIC [25]: 0.12 µg/mL (≈ 0.311 µM); MIC [26]: 0.5 µg/mL (≈ 1.3 µM); MIC [31]: 1 µg/mL (≈ 2.59 µM); MIC [27]: 16 µg/mL (≈ 41.5 µM); MIC [28]: 0.12 µg/mL (≈ 0.311 µM); MIC [29]: 0.25 µg/mL (≈ 0.649 µM)
